Test results from US20100298141A1, “SUBSTITUTED PYRIDINE N-OXIDE HERBICIDES” (E. I. DU PONT DE NEMOURS AND COMPANY, priority 2007, published 2010).

What was measured:
lambsquarters = test: Test C pre-/postemergence test; type: in vivo, Chenopodium album; settings: Postemergence; for Plant response rating, Lambsquarters: scale 0 to 100, 0 no effect, 100 complete control
How it was run: (§1)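 Test chemicals were formulated with surfactant in a non-phytotoxic solvent and sprayed both on freshly planted seeds (preemergence) and on 1- to 4-leaf plants of 2–18 cm (postemergence). Flooded-paddy pots received compound directly into 3 cm of standing water, maintained for the test.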

kochia = test: Test C pre-/postemergence test; type: in vivo, Kochia scoparia
How it was run: as §1

wheat [1] = test: Test C pre-/postemergence test; type: in vivo, Triticum aestivum
How it was run: as §1

morningglory = test: Test A pre-/postemergence greenhouse test; type: in vivo, Ipomoea spp.; settings: for Plant response rating, Morningglory: 0 to 100 scale where 0 is no effect and 100 is complete control; for Morningglory plant response rating: 0 to 100 scale
How it was run: (§2)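 Herbicidal effect is a visual injury score given about ten days post-treatment by comparison with untreated controls. Preemergence plots received a directed spray onto sown loam–sand soil; postemergence plants, at the one- to two-leaf stage and 2–10 cm tall, were sprayed at the same time.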

wild oat = test: Test C pre-/postemergence test; type: in vivo, Avena fatua
How it was run: as §1

downy brome = test: Test C pre-/postemergence test; type: in vivo, Bromus tectorum
How it was run: as §1

Surinam grass = test: Test C pre-/postemergence test; type: in vivo, Brachiaria decumbens
How it was run: as §1

common ragweed = test: Test C pre-/postemergence test; type: in vivo, Ambrosia elation
How it was run: as §1

blackgrass = test: Test C pre-/postemergence test; type: in vivo, Alopecurus myosuroides
How it was run: as §1

woolly cupgrass = test: Test C pre-/postemergence test; type: in vivo, Eriochloa villosa
How it was run: as §1

[2] = test system: common (oilseed) sunflower; test: Test C pre-/postemergence test; type: in vivo, Helianthus annuus
How it was run: as §1

redroot pigweed = test: Test A pre-/postemergence greenhouse test; type: in vivo, Amaranthus retroflexus; settings: for Plant response rating, Pigweed: 0 to 100 scale where 0 is no effect and 100 is complete control; for Pigweed plant response rating: 0 to 100 scale
How it was run: as §2

giant foxtail [3] = test: Test A pre-/postemergence greenhouse test; type: in vivo, Setaria faberi; settings: for Plant response rating, Foxtail, Giant: 0 to 100 scale where 0 is no effect and 100 is complete control; for Foxtail, Giant plant response rating: 0 to 100 scale
How it was run: as §2

cocklebur = test: Test C pre-/postemergence test; type: in vivo, Xanthium strumarium; settings: for Plant response rating, Cocklebur: scale 0 to 100, 0 no effect, 100 complete control
How it was run: as §1

wheat [4] = test: Test A pre-/postemergence greenhouse test; type: in vivo, Triticum aestivum; settings: for Plant response rating, Wheat: 0 to 100 scale where 0 is no effect and 100 is complete control; for Wheat plant response rating: 0 to 100 scale
How it was run: as §2

velvetleaf = test: Test C pre-/postemergence test; type: in vivo, Abutilon theophrasti
How it was run: as §1

giant foxtail [5] = test: Test C pre-/postemergence test; type: in vivo, Setaria faberii
How it was run: as §1

[6] = 62 g ai/ha, Preemergence, scale 0 to 100
[7] = 125 g ai/ha, preemergence, scale 0 (no effect) to 100 (complete control)
[8] = Postemergence, 62 g ai/ha, scale 0 to 100, 0 no effect, 100 complete control
[9] = Postemergence, 125 g ai/ha, scale 0 to 100, 0 no effect, 100 complete control
[10] = Postemergence, 250 g ai/ha, scale 0 to 100, 0 no effect, 100 complete control
[11] = Preemergence, 31 g ai/ha, scale 0 to 100 (0 no effect, 100 complete control)
[12] = preemergence, 250 g ai/ha, scale 0 (no effect) to 100 (complete control)
[13] = Postemergence, 500 g ai/ha, 0 is no effect, 100 is complete control
[14] = Preemergence, 125 g ai/ha, 0 no effect, 100 complete control

Cn1nc(C(F)(F)F)c(C[S+]([O-])c2ccc(F)c[n+]2[O-])c1OCC(F)(F)F (stereo not drawn) [Compound 67]
20: Plant response rating, Oat, Wild (wild oat; [8])
100: Kochia plant response rating (kochia; [6]) | Kochia plant response rating (kochia; [7]) | Kochia plant response rating (kochia; [12]) | Wheat plant response rating (wheat [1]; [7]) | Wheat plant response rating (wheat [1]; [12]) | Morningglory plant response rating (morningglory; [13]) | Plant response rating, Morningglory (morningglory; Preemergence, 500 g ai/ha) | Oat, Wild plant response rating (wild oat; [12]) | Bromegrass, Downy plant response rating (downy brome; [6]) | Bromegrass, Downy plant response rating (downy brome; [7]) | Plant response rating, Bromegrass, Downy (downy brome; [11]) | Bromegrass, Downy plant response rating (downy brome; [12]) | Surinam Grass plant response rating (Surinam grass; [6]) | Surinam Grass plant response rating (Surinam grass; [7]) | Surinam Grass plant response rating (Surinam grass; [12]) | Ragweed plant response rating (common ragweed; [6]) | Ragweed plant response rating (common ragweed; [7]) | Plant response rating, Ragweed (common ragweed; [11]) | Ragweed plant response rating (common ragweed; [12]) | Blackgrass plant response rating (blackgrass; [6]) | Blackgrass plant response rating (blackgrass; [7]) | Blackgrass plant response rating (blackgrass; [12]) | Cupgrass, Woolly plant response rating (woolly cupgrass; [12]) | Sunflower plant response rating [2, 7] | Sunflower plant response rating [2, 12] | Pigweed plant response rating (redroot pigweed; [13]) | Pigweed plant response rating (redroot pigweed; [14]) | Plant response rating, Pigweed (redroot pigweed; Preemergence, 500 g ai/ha) | Foxtail, Giant plant response rating (giant foxtail [3]; [13]) | Foxtail, Giant plant response rating (giant foxtail [3]; [14]) | Plant response rating, Foxtail, Giant (giant foxtail [3]; Preemergence, 500 g ai/ha) | Plant response rating, Wheat (wheat [4]; Preemergence, 500 g ai/ha) | Velvetleaf plant response rating (velvetleaf; [7]) | Velvetleaf plant response rating (velvetleaf; [12]) | Foxtail, Giant plant response rating (giant foxtail [5]; [6]) | Foxtail, Giant plant response rating (giant foxtail [5]; [7]) | Foxtail, Giant plant response rating (giant foxtail [5]; [12])
75: Plant response rating, Velvetleaf (velvetleaf; [11])
25: Plant response rating (0 to 100), Wheat (wheat [1]; Postemergence, 31 g ai/ha)
40: Plant response rating, Wheat (wheat [1]; [11]) | Plant response rating, Bromegrass, Downy (downy brome; [9]) | Plant response rating, Foxtail, Giant (giant foxtail [5]; [9])
45: Plant response rating, Surinam Grass (Surinam grass; [10]) | Plant response rating, Sunflower [2, 11]
90: Plant response rating, Blackgrass (blackgrass; [9]) | Plant response rating, Blackgrass (blackgrass; [10]) | Plant response rating, Blackgrass (blackgrass; [11]) | Plant response rating, Foxtail, Giant (giant foxtail [3]; Postemergence, 125 g ai/ha)
10: Plant response rating, Lambsquarters (lambsquarters; 250 g ai/ha) | Plant response rating (0 to 100), Oat, Wild (wild oat; Postemergence, 31 g ai/ha) | Plant response rating, Bromegrass, Downy (downy brome; [8])
80: Plant response rating, Kochia (kochia; [11]) | Oat, Wild plant response rating (wild oat; [6]) | Plant response rating, Oat, Wild (wild oat; [11]) | Plant response rating, Blackgrass (blackgrass; [8]) | Cupgrass, Woolly plant response rating (woolly cupgrass; [6]) | Plant response rating, Pigweed (redroot pigweed; Postemergence, 125 g ai/ha) | Plant response rating, Foxtail, Giant (giant foxtail [5]; [11])
50: Plant response rating, Ragweed (common ragweed; [9]) | Plant response rating, Cupgrass, Woolly (woolly cupgrass; [10])
60: Plant response rating, Kochia (kochia; [9]) | Plant response rating, Kochia (kochia; [10]) | Plant response rating, Oat, Wild (wild oat; [10]) | Plant response rating, Bromegrass, Downy (downy brome; [10]) | Plant response rating, Wheat (wheat [4]; Postemergence, 125 g ai/ha) | Wheat plant response rating (wheat [4]; [14])
35: Plant response rating, Velvetleaf (velvetleaf; [10])
70: Plant response rating, Wheat (wheat [1]; [9]) | Plant response rating, Morningglory (morningglory; Postemergence, 125 g ai/ha) | Morningglory plant response rating (morningglory; [14]) | Plant response rating, Cupgrass, Woolly (woolly cupgrass; [11]) | Wheat plant response rating (wheat [4]; [13]) | Plant response rating, Foxtail, Giant (giant foxtail [5]; [10])
85: Plant response rating, Wheat (wheat [1]; [10]) | Plant response rating, Surinam Grass (Surinam grass; [11]) | Sunflower plant response rating [2, 6] | Velvetleaf plant response rating (velvetleaf; [6])
55: Plant response rating, Ragweed (common ragweed; [10])
0: Plant response rating (0 to 100), Lambsquarters (lambsquarters; 31 g ai/ha) | Plant response rating, Lambsquarters (lambsquarters; 62 g ai/ha) | Plant response rating, Lambsquarters (lambsquarters; 125 g ai/ha) | Plant response rating (0 to 100), Kochia (kochia; Postemergence, 31 g ai/ha) | Plant response rating, Kochia (kochia; [8]) | Plant response rating (0 to 100), Bromegrass, Downy (downy brome; Postemergence, 31 g ai/ha) | Plant response rating (0 to 100), Surinam Grass (Surinam grass; Postemergence, 31 g ai/ha) | Plant response rating (0 to 100), Surinam Grass (Surinam grass; Postemergence, 62 g ai/ha) | Plant response rating (0 to 100), Ragweed (common ragweed; Postemergence, 31 g ai/ha) | Plant response rating (0 to 100), Ragweed (common ragweed; Postemergence, 62 g ai/ha) | Plant response rating (0 to 100), Cupgrass, Woolly (woolly cupgrass; Postemergence, 31 g ai/ha) | Plant response rating, Cupgrass, Woolly (woolly cupgrass; [8]) | Cocklebur plant response rating (cocklebur; [7]) | Plant response rating (0 to 100), Cocklebur (cocklebur; Postemergence, 31 g ai/ha) | Plant response rating, Cocklebur (cocklebur; Postemergence, 62 g ai/ha) | Plant response rating, Cocklebur (cocklebur; Postemergence, 125 g ai/ha) | Plant response rating, Cocklebur (cocklebur; Postemergence, 250 g ai/ha) | Plant response rating (0 to 100), Velvetleaf (velvetleaf; Postemergence, 31 g ai/ha) | Plant response rating (0 to 100), Velvetleaf (velvetleaf; Postemergence, 62 g ai/ha) | Plant response rating (0 to 100), Foxtail, Giant (giant foxtail [5]; Postemergence, 31 g ai/ha) | Plant response rating, Foxtail, Giant (giant foxtail [5]; [8])
30: Plant response rating (0 to 100), Wheat (wheat [1]; Postemergence, 62 g ai/ha) | Plant response rating, Surinam Grass (Surinam grass; [9]) | Plant response rating (0 to 100), Blackgrass (blackgrass; Postemergence, 31 g ai/ha) | Plant response rating, Cupgrass, Woolly (woolly cupgrass; [9]) | Plant response rating, Velvetleaf (velvetleaf; [9])
98: Wheat plant response rating (wheat [1]; [6]) | Oat, Wild plant response rating (wild oat; [7]) | Cupgrass, Woolly plant response rating (woolly cupgrass; [7])
